Results from article PMC8151276, “An Integrated Approach toward NanoBRET Tracers for Analysis of GPCR Ligand Engagement” (Molecules, 2021).

Key:
Format in all cases: binding
[1] = molecular target: T1, NTSR1 (Homo sapiens, UniProt P30989); assay: NanoBRET screen HiBiT-NTSR1 in HEK293
T1 construct: purchased Promega (in-house HiBiT-GPCR construct library, NanoBRET)
Experimental: (§1) Each tracer candidate was screened across the entire library of HiBiT-GPCR constructs using NanoBRET as the detection modality. As depicted in Figure 4A, the specificity of interactions was evaluated through decrease in BRET due to competitive displacement of a bound tracer by excess parental compound. Each tracer was analyzed for binding to each HiBiT-GPCR fusion in the absence and in the presence of competing parental compound. Briefly, HEK293 cells were transfected with HiBiT-GPCR constructs diluted into promoterless DNA to reduce expression and maximize translocation to the cell surface. Each tracer candidate was then screened at concentrations of 1 μM and 0.1 μM across cells expressing these fusions. Cells were treated for 1.5 h with tracer either alone or in the presence of 20 μM competing parental compound (i.e., control). BRET was measured upon addition of purified LgBiT and subsequent complementation with HiBiT genetically fused to a GPCR. The specificity of interactions was assessed through a decrease in BRET signal due to competitive displacement of the bound tracer. To further gauge the robustness of these interactions, the fold response over the control (i.e., BRETtracer/BRETcontrol) was calculated. We chose a 1.5-fold response, which translates to ≥7-fold signal over noise as the minimal threshold required to score an interaction as positive. […]. Below we highlight the screening results obtained for our exemplary fluorescent tracers based on Clozapine, Amitriptyline and AZD1283.
(§2) HiBiT-GPCR DNA constructs were diluted in 10 mM Tris pH 8 to a final concentration of 0.01 μg/μL, arrayed in 96-well plates and stored at −20 °C. For transfection, HEK293 cells were suspended in Opti-MEM (without phenol red) supplemented with 2% fetal bovine serum (Seradigm) and 100 units/mL penicillin–streptomycin (Gibco) at a final concentration of 220,000 cells/mL and dispensed into white 96-well plates at 90 μL/well. Subsequent transfections and screens were carried using an Agilent Bravo Automated Liquid Handling Platform. First, the 96-well HiBiT DNA arrays were diluted 25-fold in Opti-MEM (without serum or phenol red) to a final concentration of 0.0004 μg/μL and 20 μL of the diluted DNAs were transferred into new 96-well plates. Next, promoterless carrier DNA (1 μg/μL) was diluted 25-fold (0.04 μg/μL) and then dispensed into the diluted arrays at 20 μL/well. Following brief mixing, Viafect transfection reagent (Promega) diluted 16-fold into Opti-MEM was dispensed into the plates at 40 μL/well. After mixing by pipetting, plates were incubated for 10 min on the pipetting station deck. The DNA-transfection reagent complexes were then added to plates containing cells. To facilitate the screen, 10 μL of DNA-transfection reagent complexes were added in duplicates to the top 4 and bottom 4 rows, resulting in two identical 48-well arrays per plate. Plates with transfected cells were incubated for 18–20 h at 37 °C/5% CO2. A screen of each tracer across the entire library using two different concentrations requires duplicate plates of transfected cells. Depending on the number of tracers being screened, transfections can be scaled up using the same ratios. The next day, for each tracer, four 20× screening solutions in tracer dilution buffer (Promega) were prepared: two duplicates at final concentration of 20 μM and two duplicates at a final concentration of 2 μM. A competing unmodified compound was added to one of each duplicate at a final concentration of 400 μM. The four resulting solutions were diluted 4-fold in Opti-MEM without serum or phenol red to generate 5× solutions (5 µM and 0.5 µM tracer +/− 100 μM competing compound). To screen the library, a BioTek MultiFlo FX liquid dispenser was used to dispense 22.5 µL of tracer solution to the top 4 rows and 22.5 µL tracer + competing compound solution to the 4 bottom rows. Plates were briefly mixed on an orbital shaker and incubated for 1.5 h at room temperature. […]

[2] = molecular target: T2, P2RY2 (Homo sapiens, UniProt P41231); assay: NanoBRET screen HiBiT-P2RY2 in HEK293
T2 construct: purchased Promega (in-house HiBiT-GPCR construct library, NanoBRET)
T2 sequence (P41231 whole entry): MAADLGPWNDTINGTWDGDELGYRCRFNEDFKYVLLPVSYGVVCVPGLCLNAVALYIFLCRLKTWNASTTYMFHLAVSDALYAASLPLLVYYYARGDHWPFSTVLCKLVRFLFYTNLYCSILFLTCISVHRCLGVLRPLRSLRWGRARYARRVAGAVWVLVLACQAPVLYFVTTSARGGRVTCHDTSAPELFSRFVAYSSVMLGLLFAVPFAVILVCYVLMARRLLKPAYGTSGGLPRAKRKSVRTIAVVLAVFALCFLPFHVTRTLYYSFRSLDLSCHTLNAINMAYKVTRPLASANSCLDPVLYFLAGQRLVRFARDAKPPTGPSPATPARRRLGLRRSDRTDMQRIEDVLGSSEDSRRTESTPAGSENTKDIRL
Experimental: as §1, §2

[3] = molecular target: T3, F2R (Homo sapiens, UniProt P25116); assay: NanoBRET screen HiBiT-F2R in HEK293
T3 construct: purchased Promega (in-house HiBiT-GPCR construct library, NanoBRET)
T3 sequence (P25116 22-425): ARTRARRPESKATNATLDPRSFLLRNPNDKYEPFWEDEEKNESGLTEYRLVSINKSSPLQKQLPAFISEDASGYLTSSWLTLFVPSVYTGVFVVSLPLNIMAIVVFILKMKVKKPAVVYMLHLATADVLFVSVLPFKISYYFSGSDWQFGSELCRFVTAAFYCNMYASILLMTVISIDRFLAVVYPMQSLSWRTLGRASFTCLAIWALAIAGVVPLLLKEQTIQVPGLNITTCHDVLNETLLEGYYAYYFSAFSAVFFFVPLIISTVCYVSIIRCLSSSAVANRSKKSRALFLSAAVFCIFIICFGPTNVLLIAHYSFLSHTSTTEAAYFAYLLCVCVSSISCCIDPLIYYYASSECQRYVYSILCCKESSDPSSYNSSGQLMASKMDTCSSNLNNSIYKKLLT
Experimental: as §1, §2

[4] = molecular target: T4, FZD2 (Homo sapiens, UniProt Q14332); assay: NanoBRET screen HiBiT-FZD2 in HEK293
T4 construct: purchased Promega (in-house HiBiT-GPCR construct library, NanoBRET)
T4 sequence (Q14332 24-565): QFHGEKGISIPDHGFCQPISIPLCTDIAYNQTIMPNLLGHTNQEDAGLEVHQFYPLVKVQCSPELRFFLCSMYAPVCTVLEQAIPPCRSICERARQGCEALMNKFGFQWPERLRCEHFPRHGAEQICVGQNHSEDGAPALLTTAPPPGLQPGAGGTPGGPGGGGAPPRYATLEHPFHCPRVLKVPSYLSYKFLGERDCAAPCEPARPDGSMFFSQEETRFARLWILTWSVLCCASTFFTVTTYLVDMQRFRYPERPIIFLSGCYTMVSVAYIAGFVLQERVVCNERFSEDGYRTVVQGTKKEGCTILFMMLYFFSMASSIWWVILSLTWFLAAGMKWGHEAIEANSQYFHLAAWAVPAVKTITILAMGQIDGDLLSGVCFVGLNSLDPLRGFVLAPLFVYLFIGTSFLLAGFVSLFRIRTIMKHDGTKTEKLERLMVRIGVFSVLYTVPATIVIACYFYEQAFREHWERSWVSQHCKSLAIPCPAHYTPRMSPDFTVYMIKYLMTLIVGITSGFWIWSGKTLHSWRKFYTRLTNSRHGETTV
Experimental: as §1, §2

[5] = molecular target: T5, TACR3 (Homo sapiens, UniProt P29371); assay: NanoBRET screen HiBiT-TACR3 in HEK293
T5 construct: purchased Promega (in-house HiBiT-GPCR construct library, NanoBRET)
T5 sequence (P29371 1-465): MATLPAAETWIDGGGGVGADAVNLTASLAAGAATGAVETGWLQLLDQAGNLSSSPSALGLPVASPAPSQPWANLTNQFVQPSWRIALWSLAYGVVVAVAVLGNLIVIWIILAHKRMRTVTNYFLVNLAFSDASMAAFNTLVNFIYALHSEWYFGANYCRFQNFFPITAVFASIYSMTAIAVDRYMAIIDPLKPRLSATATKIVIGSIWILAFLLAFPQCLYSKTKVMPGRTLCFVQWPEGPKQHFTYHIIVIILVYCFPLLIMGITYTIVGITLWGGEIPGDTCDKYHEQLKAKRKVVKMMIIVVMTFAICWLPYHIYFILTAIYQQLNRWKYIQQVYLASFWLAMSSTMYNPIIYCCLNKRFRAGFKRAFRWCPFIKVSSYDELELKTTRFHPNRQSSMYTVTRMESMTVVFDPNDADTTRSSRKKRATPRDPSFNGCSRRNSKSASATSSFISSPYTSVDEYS
Experimental: as §1, §2

T1 sequence (P30989 whole entry): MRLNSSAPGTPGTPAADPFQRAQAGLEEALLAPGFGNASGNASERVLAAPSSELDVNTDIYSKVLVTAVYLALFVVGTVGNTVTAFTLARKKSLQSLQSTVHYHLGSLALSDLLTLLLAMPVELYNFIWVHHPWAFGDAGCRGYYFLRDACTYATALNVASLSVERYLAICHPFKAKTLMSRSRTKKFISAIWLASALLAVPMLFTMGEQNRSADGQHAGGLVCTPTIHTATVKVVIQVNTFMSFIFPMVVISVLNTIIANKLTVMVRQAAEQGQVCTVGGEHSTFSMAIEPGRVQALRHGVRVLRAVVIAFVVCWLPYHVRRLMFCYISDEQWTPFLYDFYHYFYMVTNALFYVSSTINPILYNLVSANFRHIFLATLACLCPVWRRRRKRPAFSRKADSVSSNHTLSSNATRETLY

Structure (SMILES) | NanoBRET Fold Response ([1]; NTSR1, tracer 0.1μM) | NanoBRET Fold Response ([1]; NTSR1, tracer 1μM) | NanoBRET Fold Response ([2]; P2RY2, tracer 0.1μM) | NanoBRET Fold Response ([2]; P2RY2, tracer 1μM) | NanoBRET Fold Response ([3]; F2R, tracer 0.1μM) | NanoBRET Fold Response ([3]; F2R, tracer 1μM) | NanoBRET Fold Response ([4]; FZD2, tracer 0.1μM) | NanoBRET Fold Response ([4]; FZD2, tracer 1μM) | NanoBRET Fold Response ([5]; TACR3, tracer 0.1μM) | NanoBRET Fold Response ([5]; TACR3, tracer 1μM) | other results
COc1ccc2c(n1)c(CCNC(C)=O)cn2CCNC(=O)CCc1ccc2n1[B-](F)(F)[N+]1=C(c3ccc[nH]3)C=CC1=C2 [Azamelatonin-1-NB590] | – | – | – | – | – | – | – | – | – | – | NanoBRET Fold Response ([1]; 0.1μM tracer): 1.05; NanoBRET Fold Response ([1]; 1μM tracer): 0.99; NanoBRET Fold Response ([2]; 0.1μM tracer): 0.93; NanoBRET Fold Response ([2]; 1μM tracer): 0.93; NanoBRET Fold Response ([3]; 0.1μM tracer): 0.98; NanoBRET Fold Response ([3]; 1μM tracer): 0.96; NanoBRET Fold Response ([4]; 0.1μM tracer): 0.95; NanoBRET Fold Response ([4]; 1μM tracer): 0.95; NanoBRET Fold Response ([5]; 0.1μM tracer): 1.06; NanoBRET Fold Response ([5]; 1μM tracer): 0.87
CC(C)N(CC[C@H](c1ccccc1)c1cc(CCNC(=O)c2ccc(CNC(=O)CCc3ccc4n3[B-](F)(F)[N+]3=C(c5ccc[nH]5)C=CC3=C4)cc2)ccc1O)C(C)C [Tolterodine-BZ-NB590] | 1.02 | 1.03 | 1.02 | 1.04 | 1.09 | 0.85 | 0.95 | 1.01 | 0.98 | 1.06 | –
O=C(CCc1ccc2n1[B-](F)(F)[N+]1=C(c3ccc[nH]3)C=CC1=C2)NCCOCCOCCNC(=O)OCCOCCN1CCN(C2=Nc3ccccc3Sc3ccccc32)CC1 [Quetiapine-a-2-NB590] | 1.03 | 0.89 | 1.07 | 0.95 | 1.09 | 1.41 | 0.96 | 0.89 | 1.04 | 0.83 | –
Cc1cc2c(s1)Nc1ccccc1N=C2N1CCN(CCCNC(=O)CCOCCOCCOCCOCCNC(=O)CCc2ccc3n2[B-](F)(F)[N+]2=C(c4ccc[nH]4)C=CC2=C3)CC1 [Olanzapine-a-2-NB590] | 1.01 | 1.02 | 0.95 | 1.13 | 1.01 | 0.90 | 0.98 | 0.90 | 1.00 | 0.95 | –
O=C(CCc1ccc2n1[B-](F)(F)[N+]1=C(c3ccc[nH]3)C=CC1=C2)NCc1ccc(C(=O)NCCOCCOCCNCC(O)COc2cccc3ccccc23)cc1 (centres unmarked) [Propranolol-3-NB590] | – | – | – | – | – | – | – | – | – | – | NanoBRET Fold Response ([1]; NTSR1, 0.1μM): 1.06; NanoBRET Fold Response ([1]; NTSR1, 1μM): 1.01; NanoBRET Fold Response ([2]; P2RY2, 0.1μM): 1.07; NanoBRET Fold Response ([2]; P2RY2, 1μM): 1.03; NanoBRET Fold Response ([3]; F2R, 0.1μM): 1.04; NanoBRET Fold Response ([3]; F2R, 1μM): 1.06; NanoBRET Fold Response ([4]; FZD2, 0.1μM): 0.97; NanoBRET Fold Response ([4]; FZD2, 1μM): 1.01; NanoBRET Fold Response ([5]; TACR3, 0.1μM): 1.06; NanoBRET Fold Response ([5]; TACR3, 1μM): 0.99
CN1CCN(C2=Nc3cc(Cl)ccc3N(CC(=O)NCCOCCOCCOCCOCCNC(=O)CCc3ccc4n3[B-](F)(F)[N+]3=C(c5ccc[nH]5)C=CC3=C4)c3ccccc32)CC1 [Clozapine-c-2-NB590] | – | – | – | – | – | – | – | – | – | – | NanoBRET Fold Response ([1]; NTSR1, 0.1μM tracer): 1.02; NanoBRET Fold Response ([1]; NTSR1, 1μM tracer): 1.01; NanoBRET Fold Response ([2]; P2RY2, 0.1μM tracer): 0.99; NanoBRET Fold Response ([2]; P2RY2, 1μM tracer): 0.84; NanoBRET Fold Response ([3]; F2R, 0.1μM tracer): 0.99; NanoBRET Fold Response ([3]; F2R, 1μM tracer): 0.99; NanoBRET Fold Response ([4]; FZD2, 0.1μM tracer): 1.01; NanoBRET Fold Response ([4]; FZD2, 1μM tracer): 0.90; NanoBRET Fold Response ([5]; TACR3, 0.1μM tracer): 1.00; NanoBRET Fold Response ([5]; TACR3, 1μM tracer): 1.00
O=C(CCc1ccc2n1[B-](F)(F)[N+]1=C(c3ccc[nH]3)C=CC1=C2)NCc1ccc(C(=O)NCCOCCC(=O)N[C@@H]2CC[C@@]3(O)[C@H]4Cc5ccc(O)c6c5[C@@]3(CCN4CC3CC3)[C@H]2O6)cc1 [Naltrexone-3-NB590] | 1.07 | 0.93 | 0.90 | 1.10 | 1.02 | 0.99 | 0.84 | 0.88 | 1.19 | 0.93 | –
COc1ccccc1N1CCN(CCCCN2C(=O)c3ccc(CNC(=O)CCOCCOCCOCCOCCNC(=O)CCc4ccc5n4[B-](F)(F)[N+]4=C(c6ccc[nH]6)C=CC4=C5)cc3C2=O)CC1 [NAN-190-2-NB590] | 0.97 | – | – | – | 1.07 | 0.93 | 0.97 | 1.02 | – | – | –
CN(CCC=C1c2ccccc2CCc2ccccc21)C(=O)CCOCCOCCOCCOCCNC(=O)CCc1ccc2n1[B-](F)(F)[N+]1=C(c3ccc[nH]3)C=CC1=C2 [Amitriptyline-e-2-NB590] | – | – | – | – | – | – | – | – | – | – | NanoBRET Fold Response ([2]; tracer at 1μM): 0.98; NanoBRET Fold Response ([4]; tracer at 1μM): 1.03
